Measurements as given in patent US10988523B2, “Modified lipidated Relaxin B chain peptides and their therapeutic use” (Sanofi, priority 2018, dated 2021).
Marks after values point to notes of the source that are not given here. *1 amine or outer side, *2 acyl side, *3 side chain or, on linkers, in order; H or OH if unused. Where a SMILES comes first, the peptide text is derived from it. Side-chain parts run from the residue outwards. [ ]: non-standard residue; d: D form. The star is where a group is joined. γGlu = O=C(O)[C@H](CCC(=O)[*:2])N[*:1]; Palmitoyl = CCCCCCCCCCCCCCCC(=O)*; αMeK = C[C@](N)(CCCCN)C(=O)O; Nle = CCCC[C@H](N)C(=O)O; AEEA = NCCOCCOCC(=O)O; Aib = CC(C)(N)C(=O)O

Tests used:
RXFP1 = target: T1, RXFP1 (Homo sapiens, UniProt Q9HBX9); assay: OVCAR5 cAMP assay (HTRF), RXFP1 agonist activity; assay type: cell-based; settings: OVCAR-5; maximal cAMP relative to H2-relaxin maximum (100%); read-out: EMax, OVCAR 5 cells (cAMP)
T1 construct: OVCAR5 cells expressing endogenous RXFP1; endogenous in cells; host or cells: OVCAR5 cells
T1 sequence (Q9HBX9 1-757): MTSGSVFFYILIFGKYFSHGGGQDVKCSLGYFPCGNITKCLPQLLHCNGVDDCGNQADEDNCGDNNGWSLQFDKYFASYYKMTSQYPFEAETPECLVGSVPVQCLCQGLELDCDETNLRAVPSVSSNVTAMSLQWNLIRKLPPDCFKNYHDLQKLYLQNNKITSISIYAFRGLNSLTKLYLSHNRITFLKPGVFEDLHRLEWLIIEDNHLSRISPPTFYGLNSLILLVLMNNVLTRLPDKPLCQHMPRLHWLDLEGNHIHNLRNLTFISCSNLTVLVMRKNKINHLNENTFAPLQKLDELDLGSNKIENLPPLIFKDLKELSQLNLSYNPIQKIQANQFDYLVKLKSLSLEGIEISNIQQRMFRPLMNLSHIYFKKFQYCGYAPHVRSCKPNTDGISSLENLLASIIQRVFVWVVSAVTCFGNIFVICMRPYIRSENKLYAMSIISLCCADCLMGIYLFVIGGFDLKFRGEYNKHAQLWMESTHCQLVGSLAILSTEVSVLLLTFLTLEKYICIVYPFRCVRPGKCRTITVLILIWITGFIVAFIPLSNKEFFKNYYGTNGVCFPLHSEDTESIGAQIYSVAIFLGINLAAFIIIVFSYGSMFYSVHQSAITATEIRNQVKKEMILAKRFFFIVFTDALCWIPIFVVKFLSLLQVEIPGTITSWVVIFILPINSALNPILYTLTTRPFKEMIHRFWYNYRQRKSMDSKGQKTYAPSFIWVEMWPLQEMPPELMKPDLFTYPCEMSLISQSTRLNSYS
Summary of the method: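 cAMP accumulation readout: after 1 mM IBMX for 40 min, endogenous-RXFP1 OVCAR5 cells got rising peptide concentrations without FCS, 30 min, 37° C, then lysis with HTRF cAMP reagents. Nonlinear regression gave EC50; Emax expressed relative to H2-relaxin maximum, same occasion.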

[1] = Stability testing of peptides in rat plasma or blood; assay type: in vitro ADME; settings: 5 μM, 37° C.
Summary of the method: (§1)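 Peptide at 5 µM final was incubated at 37 °C in heparinized rat or human plasma or blood, sampled up to 4 h, and extracted with acetonitrile/1% TFA. HPLC peak areas relative to t0 give % remaining peptide.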

[2] = Stability testing of peptides in human plasma or blood; assay type: in vitro ADME; settings: 5 μM, 37° C.
Summary of the method: as §1

[3] = Solubility testing of peptides in buffer; assay type: physicochemical; settings: target solubility 10.0 mg/ml
Procedure: Prior to the testing of solubility of a peptide batch, its purity (HPLC-UV) was determined.
Acetate Buffer 50 mM pH4.5: 0.75 g […], 3H2O (Sigma 57545)+0.35 ml CH3CO2H 100% solution dissolved in Millipore water, adjusted to pH with diluted (1:1) CH3CO2H and diluted to 250 ml with Millipore water.
In a 4 ml Ependorph vial, an accurately weighed sample of compound was diluted in study media to obtain target concentration of 2, 6 or 10 mg/ml of pure compound. The sample vials were shacked (rock 'roll shaker) for ˜19 h. 3004, Aliquots ( ) were filtered through a Millipore “Solvinert” plate (0.45 μm—PTFE hydrophilic).
pH was measured with a micro electrode
Waters Acquity UPLC System with DAD detector
Column: Waters Peptide Column CSH C18 (130 Å; 1.7 μm; 50*2.1 mm)
Column temperature: 60° C.
Full loop (about 5 μL)—overfill factor 5
Weak et Strong wash: H2O/ACN (75/25; V/V); Seal wash: H2O/IsOH (95/5; V/V). Mobile phase:
Solvent A: 0.05% TFA in H2O; Solvent B: 0.035% TFA in CH3CN
Gradient: from 0 to 12 min B=2% to 60%, from 12 to 14 min B=60% to 100%. Column washing 100% B 1 min, column equilibration 2% B 2.5 min.
UV detector: wavelength: 220 nm.

[4] = Pharmacokinetic (PK) determination after i.v. or s.c. administration to rats; assay type: in vivo, Sprague Dawley rats; settings: Rat PK
Summary of the method: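 Non-compartmental analysis of plasma LC/MS data (protein precipitation, BLQ taken as zero) gave T½, C0 (i.v.), Cmax/Tmax (s.c.) and F% from dose-corrected AUCs. Dosing: 3 mg/kg s.c. or 1 mg/kg i.v. in PBS to Sprague Dawley rats, purity- and salt-corrected.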

Emax (RXFP1): 92%
Rat stability in blood % remaining 1 h ([1]; rat blood, 1 h): 99** %
Rat stability in blood % remaining 4 h ([1]; rat blood, 4 h): 95** %
Rat plasma stability % remaining T = 0 ([1]; rat plasma or blood, T = 0 (reference)): 100%
Human stability in blood % remaining 1 h ([2]; human blood, 1 h): 91** %
Human stability in blood % remaining 4 h ([2]; human blood, 4 h): 96** %
Human Plasma stability % remaining T = 0 ([2]; human plasma or blood, T = 0 (reference)): 100%
Solubility Acetate buffer pH 4.5 ([3]; acetate buffer 50 mM pH 4.5): >10 mg/ml****
Solubility phosphate buffer pH 7.4 ([3]; phosphate buffer 50 mM pH 7.4): >10 mg/ml****
T½ ([4]; 1 mg/kg i.v.): 5.00 h
C0 ([4]; 1 mg/kg i.v., extrapolated plasma concentration at t=0, read-out: C0): 4.52 µM
Cmax ([4]; 3 mg/kg s.c.): 1.89 µM
Tmax (-h) ([4]; 3 mg/kg s.c.): 8.0 h
F % ([4]; 3 mg/kg s.c. vs 1 mg/kg i.v., dose-corrected AUC ratio): 72%
SMILES: CCCCCCCCCCCCCCCC(=O)N[C@@H](CCC(=O)N[C@@H](CCC(=O)N[C@@H](CCC(=O)N[C@@H](CCC(=O)NCCOCCOCC(=O)NCCOCCOCC(=O)NCCOCCOCC(=O)NCCOCCOCC(=O)NCCCC[C@H](NC(=O)[C@H](CCCCNC(C)=O)NC(=O)[C@H](C)NC(=O)[C@H](CCCNC(=N)N)NC(=O)[C@](C)(CCCCN)NC(=O)[C@H](CO)NC(=O)[C@H](Cc1ccccc1)NC(=O)[C@@H](NC(=O)[C@H](CO)NC(=O)[C@H](CCCC)NC(=O)CNC(=O)[C@H](CCC(=O)O)NC(=O)C(C)(C)NC(=O)C(C)(C)NC(=O)[C@@H](NC(=O)[C@H](CCCCNC(C)=O)NC(=O)[C@H](C)NC(=O)[C@H](CCCNC(=N)N)NC(=O)[C@@H](NC(=O)[C@H](CCCCN)NC(=O)[C@H](CCC(=O)O)NC(=O)[C@H](CCCNC(=N)N)NC(=O)CNC(=O)[C@H](CCC(=O)O)NC(=O)[C@H](CC(C)C)NC(C)=O)C(C)C)[C@@H](C)CC)[C@@H](C)O)C(N)=O)C(=O)O)C(=O)O)C(=O)O)C(=O)O [compound 154] (Ac-LEGREKVRAK(Ac)I[Aib][Aib]EG[Nle]STFS[αMeK]RAK(Ac)K([AEEA-AEEA-AEEA-AEEA-γGlu-γGlu-γGlu-γGlu-Palmitoyl])-NH2)
